Experimental data reported in patent US20060252683A1, “Preparation of a peptide compound (SYRAPRO-2000) and its use for the activation of protein phosphatase-2A1 enzyme” (priority 2005, published 2006).

Assays:
Format in all cases: cell-based, human
[1] = tested on: SK—N—SH cells; test: Cell viability (tryphan blue) and cell death of SK-N-SH cells; conditions: 2000 nM, 8 days
Protocol: (§1) Panel A, SK—N—SH cells (a human neuroblastoma cell line) were grown in DMEM and 5% (v/v) fetal bovine serum. Cells (10^6 cells per ml) were treated (+) or not (−) with 2000 nM SYRAPRO-2000. Cell viability was then determined by counting the cells following tryphan blue staining after 4, 8 and 12 days of incubation. Panel B, Following treatment with or without SYRAPRO-2000 for 8 days, SK—N—SH cells grown on slides were analyzed by phase contrast microscopy (Row A), by fluorescence microscopy following staining with FITC labeled annexin V (apoptotic cell death) (Row B) or propidium iodide (oncolytic cell death) on a on a Zeiss Axioplan 2 imaging universal microscope (Thornwood, N.Y.). Phase contrast images and Green (FITC labeled annexin V) and red (propidium iodide) fluorescence images were obtained. […]
(§2) SK—N—SH cells are grown in DMEM supplemented with 5% (v/v) fetal bovine serum and antibiotics and treated or not with 2 μM SYRAPRO-2000 for 8 days. Following treatment with SYRAPRO-2000, cell viability are then determined by counting the cells following tryphan blue staining. […] Following treatment with SYRAPRO-2000, cells grown on slides by were analyzed by phase contrast microscopy and fluorescence microscopy following staining with FITC labeled annexin V (an indicator of apoptotic cell death) or propidium iodide (an indicator of oncolytic or necrotic cell death). […]

[2] = as above; conditions: human, SK-N-SH cells (neuroblastoma cell line), 2000 nM, 4 days of incubation, read-out: treated cells non viable (tryphan blue staining)
Protocol: as §1, §2

[3] = Cell viability (tryphan blue) and cell death of HTB-3 cells; conditions: human, HTB-3 cells (glioblastoma cell line), 2000 nM, 8 days of incubation, read-out: treated cells non viable (tryphan blue staining)
Protocol: (§3) Panel A, HTB-3 cells (a human glioblastoma cell line) were grown in DMEM and 5% (v/v) fetal bovine serum. Cells (10^6 cells per ml) were treated (+) or not (−) with 2000 nM SYRAPRO-2000. Cell viability was then determined by counting the cells following tryphan blue staining after 4, 8 and 12 days of incubation. Panel B, Following treatment with or without SYRAPRO-2000 for 8 days, HTB-3 cells grown on slides were analyzed by phase contrast microscopy (Row A), by fluorescence microscopy following staining with FITC labeled annexin V (apoptotic cell death) (Row B) or propidium iodide (oncolytic cell death) on a Cells were analyzed on a Zeiss Axioplan 2 imaging universal microscope (Thornwood, N.Y.). Phase contrast images and Green (FITC labeled annexin V) and red (propidium iodide) fluorescence images were obtained. […]
as §2, with “HTB-3” for “SK—N—SH”

[4] = tested on: HTB-3 cells; test: as above; conditions: 2000 nM, 8 days
Protocol: as §3
as §2, with “HTB-3” for “SK—N—SH”

For `CC[C@H](C)[C@H](NC(=O)[C@H](CCCNC(=N)N)NC(=O)[C@H](CO)NC(=O)[C@H](Cc1c[nH]cn1)NC(=O)[C@H](CCCNC(=N)N)NC(=O)[C@H](CS)NC(=O)CNC(=O)[C@@H](NC(=O)[C@H](CCCNC(=N)N)NC(=O)[C@H](Cc1ccccc1)NC(=O)[C@@H](N)Cc1c[nH]cn1)[C@@H](C)CC)C(=O)NCC(=O)N[C@H](C(=O)N[C@H](C(=O)N[C@@H](CCCNC(=N)N)C(=O)N[C@@H](CCC(N)=O)C(=O)N[C@@H](CCCNC(=N)N)C(=O)N[C@@H](CCCNC(=N)N)C(=O)N[C@@H](C)C(=O)N[C@@H](CCCNC(=N)N)C(=O)N[C@@H](CC(N)=O)C(=O)NCC(=O)N[C@@H](C)C(=O)N[C@@H](CO)C(=O)N[C@@H](CCCNC(=N)N)C(=O)N[C@@H](CO)C(=O)O)[C@@H](C)O)C(C)C` [SYRAPRO-2000], the “mode of cell death (FITC-annexin V and propidium iodide staining)” value [1] was “apoptosis and oncolysis”, the cytotoxicity at 4 days, 2 µM [2] was ~50% and the cytotoxicity at 8 days, 2 µM [3] was ~50%. The “mode of cell death (FITC-annexin V and propidium iodide staining)” value [4] was “apoptosis and oncolysis”.
